These results are taken from US11453671B2, “Pyrazolopyrimidine inhibitors of JAK kinases and uses thereof” (Genentech, Inc., priority 2020, dated 2022).

For assay [1], the target named is T1, recombinant human JAK1 kinase domain protein (Residues 854-1154) (Homo sapiens, UniProt P23458).
T1 construct: human JAK1 kinase domain protein (Residues 854-1154); purchased Proteros Biostructures GmbH (Martinsried, Germany); host or cells: insect cells
In words: JAK1 biochemical assay (microfluidic mobility shift, peptide phosphorylation). The conditions noted are these: 25 μM ATP, 1 nM total JAK1; read-out: Enzyme JAK1 Ki. The source says: JAK1 and JAK2 Biochemical Assays

For assay [2], the target named is Recombinant human JAK2 kinase domain protein (Residues 812-1132) (Homo sapiens, UniProt O60674). The experiment in a line: JAK2 biochemical assay (microfluidic mobility shift, peptide phosphorylation). The conditions noted are these: Enzyme JAK2 Ki (nM), 25 μM ATP, 0.2 nM total JAK2.
Recombinant human JAK2 kinase domain protein (Residues 812-1132), sequence (O60674 812-1132): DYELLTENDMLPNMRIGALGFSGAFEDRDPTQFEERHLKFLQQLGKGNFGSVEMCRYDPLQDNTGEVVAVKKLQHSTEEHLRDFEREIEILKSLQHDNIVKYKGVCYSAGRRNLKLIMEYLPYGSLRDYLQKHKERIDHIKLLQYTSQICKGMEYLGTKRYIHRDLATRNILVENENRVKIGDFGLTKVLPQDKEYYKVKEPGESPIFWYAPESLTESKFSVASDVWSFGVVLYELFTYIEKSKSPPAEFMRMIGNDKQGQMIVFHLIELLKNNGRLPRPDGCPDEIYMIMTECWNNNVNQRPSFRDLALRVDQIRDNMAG
In assay [3] the test system is JAK1: IL-13-stimulated STAT6 phosphorylation in BEAS-2B cells. The experiment in a line: P-STAT6 BEAS-2B+IL-13 Cell Assay. The assay is classed as cell-based, human. Particulars: IL-13 stimulation, read-out: Cellular JAK1 PSTAT6 BEAS2B + IL13 IC50. How it is done:
P-STAT6 BEAS-2B+IL-13 Cell Assay
In order to study the effect of JAK1 inhibitors in a cell line that is relevant to the cell biology of human asthma, an IL-13-stimulated STAT6 phosphorylation assay in the human lung bronchial epithelial BEAS-2B cell line was developed.
BEAS-2B cells (ATCC® CRL-9609™) were grown in Bronchial Epithelial Growth Medium (BEGM) (Lonza Catalog No. CC-3170; Walkersville, Md.; or PromoCell Catalog No. C-21060; Heidelberg, Germany). Test compound stock solutions (0.5 mM in DMSO) were serially diluted 1:2 in DMSO to generate a 10-point concentration curve (at 500×test concentration), which was further diluted by a 50-fold dilution step in BEGM to generate a 10× concentration curve (in 2% DMSO). Cells were plated at 100,000 cells/well in 200 μL of BEGM in 96-well plates and incubated for 48 hours at 37° C. in a humidified incubator. Medium was aspirated from the cells and replaced with 70 μL of fresh BEGM. Diluted test compound (10 μL; or 2% DMSO in assay medium) was added to the cells, and the plates were incubated for 1 hour at 37° C. in a humidified incubator. Twenty μL of 250 ng/mL human recombinant IL-13 (Bio Techne Catalog No. 213-ILB) was then added to the cells and incubated for 15 minutes at 37° C. Medium was aspirated from the cells and 60 μL of ice-cold 1×cell lysis buffer (Cell Signaling Technologies; Catalog No. 9803S) containing 1 mM PMSF was added to the cells. Assay plates were incubated at −80° C. for at least 1 hour. P-STAT6 was measured by coating GAR plates (MSD; Catalog No. L45RA-1) with rabbit anti-human total STAT6 antibody (Cell Signaling Technologies; Catalog No. 9362S), incubating the cell lysates in the coated plates overnight at 4° C., and then detecting with mouse anti-phospho-STAT6 (Tyr641) Clone 16E12 antibody (Millipore; Catalog No. 05-590, custom labeled by MSD with SULFO-tag) using standard MSD plate processing, washing, and detection protocols. Plates were read on the MESO SECTOR S600. Data Analysis
Data analysis was performed by subtracting negative control values from all wells and determining percent of control using the positive control values; the IC50 was determined with a four-parameter logistic fit model as shown in Equation 4.

Where two headings read alike, the source gives them in different places.

T1 sequence (P23458 854-1154): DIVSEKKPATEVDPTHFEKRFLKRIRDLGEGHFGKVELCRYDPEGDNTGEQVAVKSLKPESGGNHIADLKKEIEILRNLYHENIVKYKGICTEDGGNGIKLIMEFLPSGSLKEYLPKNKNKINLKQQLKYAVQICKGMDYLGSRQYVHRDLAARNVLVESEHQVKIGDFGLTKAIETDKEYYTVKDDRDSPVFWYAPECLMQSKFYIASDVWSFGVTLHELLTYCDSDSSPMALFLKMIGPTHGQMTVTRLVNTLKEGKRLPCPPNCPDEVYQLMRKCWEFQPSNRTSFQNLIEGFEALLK

Take `CS(=O)(=O)c1ccc(OC(F)F)c(-c2nn(C3CCOC3=O)cc2NC(=O)c2cnn3cccnc23)c1` (single isomer, unassigned) [Example 33, N-[3-[2-(difluoromethoxy)-5-methylsulfonyl-phenyl]-1-(2-oxotetrahydrofuran-3-yl)pyrazol-4-yl]pyrazolo[1,5-a]pyrimidine-3-carboxamide]: the values for the Ki in assay [1] and in assay [2] were 0.4 nM and 0.23 nM, respectively. For the same compound, the IC50 in assay [3] worked out at 99 nM.
As for `Cn1cc(NC(=O)c2cnn3cccnc23)c(-c2cc(S(=O)(=O)C3CCNC3)ccc2OC(F)F)n1` (stereo not drawn) [Example 10, N-[3-[2-(difluoromethoxy)-5-pyrrolidin-3-ylsulfonyl-phenyl]-1-methyl-pyrazol-4-yl]pyrazolo[1,5-a]pyrimidine-3-carboxamide], the inhibition constant Ki in assay [1] was determined as 0.95 nM; in assay [2], 0.6 nM. In addition, the half-inhibitory concentration (IC50) in assay [3] (Homo sapiens, BEAS-2B) was 52 nM.
As to `CC(=O)N1CC(S(=O)(=O)c2ccc(OC(F)F)c(-c3nn(C)cc3NC(=O)c3cnn4cccnc34)c2)C1` [Example 27, N-[3-[5-(1-acetylazetidin-3-yl)sulfonyl-2-(difluoromethoxy)phenyl]-1-methyl-pyrazol-4-yl]pryazolo[1,5-a]pyrimidine-3-carboxamide], the inhibition constant (Ki) in assay [1] was 0.59 nM; in assay [2] it was 0.26 nM. Moreover, the IC50 in assay [3] (Homo sapiens, BEAS-2B) stood at 99 nM.
Consider `Cn1cc(NC(=O)c2cnn3cccnc23)c(-c2cc(S(=O)(=O)c3cnn(CCN)c3)ccc2OC(F)F)n1` [Example 47, N-[3-[5-[1-(2-aminoethyl)pyrazol-4-yl]sulfonyl-2-(difluoromethoxy)phenyl]-1-methyl-pyrazol-4-yl]pyrazolo[1,5-a]pyrimidine-3-carboxamide], for which the values for the Ki in assay [1] and in assay [2] were 0.31 nM and 0.33 nM, respectively. Further, the IC50 in assay [3] (Homo sapiens, BEAS-2B) stood at 210 nM.
`N#CCn1cc(NC(=O)c2cnn3cccnc23)c(-c2cc(S(=O)(=O)C3COC3)ccc2OC(F)F)n1` [Example 51, N-[1-(cyanomethyl)-3-[2-(difluoromethoxy)-5-(oxetan-3-ylsulfonyl)phenyl]pyrazol-4-yl]pyrazolo[1,5-a]pyrimidine-3-carboxamide]: the Ki in assay [1] worked out at 0.39 nM; in assay [2], 0.21 nM. In assay [3] (Homo sapiens, BEAS-2B), the IC50 turned out to be 100 nM.
As to `Cn1cc(NC(=O)c2cnn3cccnc23)c(-c2cc(S(=O)(=O)c3cnn(C4CN5CCC4CC5)c3)ccc2OC(F)F)n1` (stereo not drawn) [Example 55, N-[3-[2-(difluoromethoxy)-5-(1-quinuclidin-3-ylpyrazol-4-yl)sulfonyl-phenyl]-1-methyl-pyrazol-4-yl]pyrazolo[1,5-a]pyrimidine-3-carboxamide], the figures for the Ki in assay [1] and in assay [2] were 0.93 nM and 0.98 nM, respectively. The 50% inhibitory concentration (IC50) in assay [3] (Homo sapiens, BEAS-2B) turned out to be 71 nM.
With `CS(=O)(=O)c1ccc(OC(F)F)c(-c2nn(C3CCOC3=O)cc2NC(=O)c2cnn3cccnc23)c1` (single isomer, unassigned) [Example 32, N-[3-[2-(difluoromethoxy)-5-methylsulfonyl-phenyl]-1-(2-oxotetrahydrofuran-3-yl)pyrazol-4-yl]pyrazolo[1,5-a]pyrimidine-3-carboxamide], the Ki in assay [1] was found to be 1.1 nM; in assay [2], 0.62 nM. The IC50 in assay [3] (Homo sapiens, BEAS-2B) worked out at 120 nM.
For `Cn1cc(NC(=O)c2cnn3cccnc23)c(-c2cc(S(=O)(=O)c3cccc(CCN)c3)ccc2OC(F)F)n1` [Example 18, N-[3-[5-[3-(2-aminoethyl)phenyl]sulfonyl-2-(difluoromethoxy)phenyl]-1-methyl-pyrazol-4-yl]pyrazolo[1,5-a]pyrimidine-3-carboxamide], the Ki amounted to 0.43 nM in assay [1] and 0.4 nM in assay [2]. Further, the IC50 in assay [3] (Homo sapiens, BEAS-2B) was determined as 290 nM.
Consider `CN1CCCC1CCn1cc(S(=O)(=O)c2ccc(OC(F)F)c(-c3nn(C)cc3NC(=O)c3cnn4cccnc34)c2)cn1` (stereo in doubt) [Example 57, N-[3-[2-(difluoromethoxy)-5-[1-[2-[(2S)-1-methylpyrrolidin-2-yl]ethyl]pyrazol-4-yl]sulfonyl-phenyl]-1-methyl-pyrazol-4-yl]pyrazolo[1,5-a]pyrimidine-3-carboxamide], for which the Ki in assay [1] turned out to be 0.57 nM; in assay [2] it was 0.54 nM. For the same compound, the IC50 in assay [3] (Homo sapiens, BEAS-2B) is 54 nM.
For `CN1C=Cc2ccc(S(=O)(=O)c3ccc(OC(F)F)c(-c4nn(C)cc4NC(=O)c4cnn5cccnc45)c3)cc2C1` [Example 62, N-[3-[2-(difluoromethoxy)-5-[(2-methyl-1H-isoquinolin-7-yl)sulfonyl]phenyl]-1-methyl-pyrazol-4-yl]pyrazolo[1,5-a]pyrimidine-3-carboxamide], the Ki in assay [1] is 2 nM; in assay [2], 0.93 nM. Also, the IC50 in assay [3] (Homo sapiens, BEAS-2B) amounted to 150 nM.
With `CN1CC(n2cc(NC(=O)c3cnn4cccnc34)c(-c3cc(S(=O)(=O)C4CC4)ccc3OC(F)F)n2)C1` [Example 52, N-[3-[5-cyclopropylsulfonyl-2-(difluoromethoxy)phenyl]-1-(1-methylazetidin-3-yl)pyrazol-4-yl]pyrazolo[1,5-a]pyrimidine-3-carboxamide], the inhibition constant (Ki) in assay [1] turned out to be 2.2 nM; in assay [2], 1 nM. Also, the IC50 in assay [3] (Homo sapiens, BEAS-2B) worked out at 96 nM.
For the compound `CC(O)C(C)S(=O)(=O)c1ccc(OC(F)F)c(-c2nn(C)cc2NC(=O)c2cnn3cccnc23)c1` (single isomer, unassigned) [Example 70, N-[3-[2-(difluoromethxoy)-5-(2-hydroxy-1-methyl-propyl)sulfonyl-phenyl]-1-methyl-pyrazol-4-yl]pyrazolo[1,5-a]pyrimidine-3-carboxamide], the Ki in assay [1] worked out at 1 nM; in assay [2], 0.33 nM. Further, the IC50 in assay [3] was 75 nM.
On to `CC(O)C(C)S(=O)(=O)c1ccc(OC(F)F)c(-c2nn(C)cc2NC(=O)c2cnn3cccnc23)c1` (single isomer, unassigned) [Example 71, N-[3-[2-(difluoromethoxy)-5-(2-hydroxy-1-methyl-propyl)sulfonyl-phenyl]-1-methyl-pyrazol-4-yl]pyrazolo[1,5-a]pyrimidine-3-carboxamide], for which the Ki was found to be 1.4 nM in assay [1] and 0.46 nM in assay [2]. In addition, the IC50 in assay [3] is 110 nM.

Usually Ki stands for a dissociation constant, usually derived from enzyme kinetics or from competition with a known ligand. For orientation: IC50 means the concentration at which inhibition is half-maximal.
